Laboratory results: PMC10382604, “The mirrored cationic peptide as miRNA vehicle for efficient lung cancer therapy” (MedComm, 2023)
Ends that are not written are not given here.

Key:
Experiment in all cases: CCK-8 cytotoxicity of the peptides
Conditions in all cases: CCK-8 assay, peptide alone, Figure S1
[1] = tested on: A549 (lung adenocarcinoma cells); type: cell-based, human
Experimental: (§1) Cell viability was detected by CCK8 assay (Beyotime Biotechnology, China) based on the universal protocol.[38] The ratio of cell viability was calculated as A treated/A control × 100%.

[2] = tested on: NCI‐H1299 (lung adenocarcinoma cells); type: cell-based, human
Experimental: as §1

[3] = tested on: BEAS‐2B cells (human bronchial epithelial cells); type: cell-based
Experimental: as §1

Measured: cytotoxicity

RGDGSRRRRPLGLAGRRRR [RR19]
no significant cytotoxicity: [1] | [2] | [3]

RRRRPLGLAGRRRR [RR14]
no significant cytotoxicity: [1] | [2] | [3]

RGDGSRRRRPLGLAGRRRRGSRGD [RD24]
no significant cytotoxicity: [1] | [2] | [3]
